These results are taken from US20140364454A1, “METAL-CHELATING COMPOUNDS HAVING AT LEAST ONE POLYAMINO CHAIN” (UNIVERSITE DE RENNES I, priority 2011, published 2014).

pIC50: −log10 of the molar value. Read-outs that look alike come from different tables or passages of the source.

Data set [1] relates to mutant cell line CHO-MG without PTS. Briefly: Anti-proliferative effect on CHO-MG cells without PTS, counting of cell nuclei. Format: cell-based, hamster. The note with it: for pIC50: 72 h treatment; for Ratio IC50 (CHO-MG/CHO): selectivity of recognition by the PTS. From the text:
The IC50 inhibitor concentration corresponding to the concentration in Quilamines enables the inhibition at 50% of the cell proliferation was deduced from the dose-effect curves of numeration of the nuclei of the living cells on the CHO and CHO-MG cell lines. These dose-effect curves are sometimes bi-phase curves as in the case of Quilamine HQ1-44 which has an anti-proliferative constituent (without concomitant release of LDH in supernatant) in the range of concentrations of 0.4 to 3 micromoles per liter and a second cytotoxic constituent accompanied by membrane toxicity expressed by the release of LDH for concentrations of over […]. The lower the value of IC50, the greater the efficiency of the anti-proliferative effect of the tested chelators.
Furthermore, the ratio of the IC50 inhibitor concentrations found for the CHO-MG and the CHO cell lines (Ratio IC50 (CHO-MG/CHO)) was computed for several Quilamines according to the invention. This ratio makes it possible to estimate the selectivity of recognition of the different chelators by the PTS: the higher the ratio, the more clearly is the chelator recognized by the PTS. When this ratio is close to 1, the tested chelator is not recognized or is little recognized by the PTS.

Data set [2] has as its system wild cell line (CHO) of hamster ovarian cells. Briefly: Anti-proliferative effect on CHO cells, counting of cell nuclei (Hoechst 33342). Format: cell-based. The settings on record: CHO. On the procedure: The in vitro efficacy of different Quilamines was tested on a wild cell line (CHO) of hamster ovarian cells having PTS and a mutant cell line CHO-MG without PTS. The two cell types CHO and CHO-MG were treated, 24 hours after being seeded in 96-well microplates, by concentrations of different Quilamines ranging from 0.1 to 400 micromoles per liter. The cytostatic (anti-proliferative) effects and cytotoxic effects of Quilamine after 72 hours' treatment of the cells were assessed respectively by counting cell nuclei after DNA marking by the Hoechst 33342 fluorescent intercalant dye and by analysis of membrane damage detected by the dosing of the lactate dehydrogenase activity (LHD) in the supernatants.
The IC50 inhibitor concentration corresponding to the concentration in Quilamines enables the inhibition at 50% of the cell proliferation was deduced from the dose-effect curves of numeration of the nuclei of the living cells on the CHO and CHO-MG cell lines. […] The lower the value of IC50, the greater the efficiency of the anti-proliferative effect of the tested chelators.
A comparison was made of the cytostatic or anti-proliferative action and the cytotoxic action for 72 h of treatment by Quilamine HQ1-44 and 8-hydroxyquinoline and ICL670, on the CHO cell lines in the presence and without the presence of exogenous iron, in the form of Fe(III) citrate in a concentration of 20 micromoles per liter. The results obtained are shown in FIG. 4, FIG. 4A relating to the results on cell viability and FIG. 4B relating to the results on cell toxicity.

In data set [3] the test system is Caco-2 cells. Briefly: Biochemical analysis of intra-cell iron, L-ferritin and transferrin soluble receptor in Caco-2 cells. Format: cell-based, human. The settings on record: 72 hours; for intra-cell iron and L-ferritin concentrations: Caco-2, 10 micromoles per liter; for transferrin-soluble receptor: Caco-2 supernatant, 10 micromoles per liter. As for the experimental part: After treatment for 72 hours of the Caco-2 cells in proliferative phase by Quilamine HQ1-44 and ICL670, biochemical analysis is carried out on the intra-cell iron (Fe2+ and Fe3+), of the two main proteins for regulating iron metabolism by the dosing of the intra-cell concentrations in L-ferritin, the iron storage protein, as well as the analysis of the transferrin soluble receptor the cell supernatant, which is a marker of the concentration in transferrin receptor, the iron importing protein of the membrane.

Data set [4] relates to HepG2 cells. In words: Cytotoxic effect on HepG2 cells, LDH release. Format: cell-based, human. The settings on record: for influence of exogenous iron on the cytotoxic effect: HepG2, presence of exogenous iron. As for the experimental part:
(§1) The implication of PTS in the cytostatic and cytotoxic action of Quilamines was analyzed in proliferating HepG2 hepatocyte tumor cells after activation of PTS or competitive inhibition of PTS by spermidine, a polyamine naturally present in the organism and most efficaciously captured by the PTS. The conditions of treatment by Quilamines are identical to those described in paragraph III-1.
(§2) Inhibiting ornithine decarboxylase (ODC), the key enzyme in the biosynthesis of polyamines, causes a depletion of intra-cell polyamines and an activation of PTS which enables the deficiency to be met. This activation of PTS is done by means of the ODC inhibitor, alpha-difluoromethyl ornithine (DFMO).
(§3) The competitive inhibition of PTS by spermidine is prompted by the co-treatment of the cells by the Quilamines in the presence of spermidine, in a concentration of 50 micromoles per liter.

The test system of data set [5] is Caco-2 cells. In words: LDH release of Caco-2 cells. The settings on record: for influence of exogenous iron on the cytotoxic effect: Caco-2, after addition of exogenous iron; for % LDH/control 10 μM: Caco-2 J4, 10 μM; for % LDH/control 100 μM: Caco-2 J4, 100 μM. Format: cell-based, human. As for the experimental part:
The action of Quilamines on the cell viability was analyzed on enterocyte cells of the Caco-2 tumor cell line derived from human colon carcinoma and compared with the action of ICL670 in the presence or absence of exogenous iron, after activation (DFMO) or competitive inhibition by spermidine, of the PTS. The operating conditions used are identical to those used for CHO/CHO-MG and HepG2 cells.
As in the case of the other cell lines in proliferative phase presented here above, the dose-effect curves of the action of the Quilamines on the number of viable cells (number of nuclei) are biphase curves with a cytostatic constituent for concentration values of below 30 micromoles per liter and a cytotoxic constituent with release of LDH for concentration values above 30 micromoles per liter. Only this second cytotoxic constituent is observed when the cells of the Caco-2 cell line are treated after confluence (stopping of the proliferation).

For data set [6], the system named is Caco-2 cells. In words: LC/MSMS of intra-cell polyamines in Caco-2 cells. Format: cell-based, human. The note with it: proliferating Caco-2, 10 micromoles per liter, 72 hours. On the procedure:
After treatment for 72 hours of the Caco-2 cells, in proliferative phase by Quilamine HQ1-44 and ICL670 in a concentration of 10 micromoles per liter, a biochemical analysis is carried out by tandem mass spectrometry coupled with liquid chromatography (LC/MSMS) of the intra-cell polyamines such as putrescine, spermidine and spermine, after dansylation.

The subject of data set [7] is HepG2 cells. In words: Anti-proliferative effect on HepG2 cells (nuclei count or SDH activity). Format: cell-based, human. The note with it: for pIC50: Homo sapiens, HepG2, absence of exogenous iron, read-out: IC50 associated with the cytostatic effect; for pIC50 / % of HepG2 cells concerned by the anti-proliferative effect: 72 h; for % of HepG2 cells concerned by the anti-proliferative effect: absence of exogenous iron.
Source text: The majority of the Quilamines, like ICL670, show biphase dose-effect curves in the absence of exogenous iron, with an anti-proliferative constituent for concentration values of 1 to 10 micromoles per liter and a cytotoxic constituent associated with a release of LDH for concentration values of over 10 micromoles per liter. The percentage of HepG2 cells concerned by the anti-proliferative effect and the values of IC50 associated with this cytostatic effect in the absence of exogenous iron were listed in the table 4 below.
as §1, §2, §3

The mark [8] stands for this setting: Fe(III) citrate 20 micromoles per liter.
Where [9] appears, read: 72 h treatment, no exogenous iron, read-out: IC50 CHO.

A word on the pIC50: it is −log10 of the IC50, conventionally taken in molar units. As to `NCCCCNCCCCNCc1ccc2cccc(O)c2n1` [HQ1-44, 2-[4-(4-aminobutyl)aminobutyl]aminomethylquinolin-8-ol], in data set [1], the pIC50 is 3.46 and the “Ratio IC50 (CHO-MG/CHO)” value turned out to be 249. Further, the pIC50 in data set [1] (CHO-MG, 72 h) is 3.46. Further, the “influence of exogenous iron on the cytostatic (anti-proliferative) effect” value in data set [2] (setting [8]) was “improvement”. Also, in data set [2] (setting [9]), the pIC50 is 5.85. In addition, in data set [2] (Fe(III) citrate 20 micromoles per liter, 72 h, read-out: IC50 CHO in the presence of exogenous iron), the pIC50 is 6.22. Also, in the data set with Caco-2 cells [3], the “intra-cell iron and L-ferritin concentrations” value is on record as “intra-cell iron depletion”; the transferrin-soluble receptor entry is listed as “no significant effect”. In the data set on HepG2 cells [4] (HepG2, concentrations greater than 50 micromoles per liter (50-100)), the “influence of PTS activation by DFMO pre-treatment on cytotoxicity” value is given as “amplification”. For the same molecule, the “influence of exogenous iron on the cytotoxic effect” value in the data set on HepG2 cells [4] was “partially inhibited”. For the same molecule, in the data set on HepG2 cells [4] (HepG2, spermidine 50 micromoles per liter, Quilamine 50 to 100 micromoles per liter), the “influence of competitive inhibition of PTS by spermidine on the cytotoxic effects” value is given as “inhibition”. For the same molecule, in the data set on Caco-2 cells [5], the “influence of exogenous iron on the cytotoxic effect” value was “partially inhibited”, the “% LDH/control 10 μM” value was found to be 118% and the “% LDH/control 100 μM” value came out at 287%. For the same molecule, in the data set with Caco-2 cells [6], the “change of intra-cell concentration of putrescine (Put)” value is −73%, the “change of intra-cell concentration of spermidine (Spd)” value is −55% and the “effect on intra-cell spermine (Spm)” value was “absence of an effect”. Besides, the “influence of competitive inhibition of PTS by spermidine on the cytostatic effects” value in the data set on HepG2 cells [7] (HepG2, spermidine 50 micromoles per liter, Quilamine below 10 micromoles per liter) is given as “inhibition”. Further, in the data set with HepG2 cells [7], the pIC50 was 5.56 and the “% of HepG2 cells concerned by the anti-proliferative effect” value is on record as 30%.
Regarding `O=C(O)c1ccc(-n2nc(-c3ccccc3O)nc2-c2ccccc2O)cc1` [ICL670, reference compound], in data set [1] (CHO-MG, 72 h), the pIC50 is 5.10. In addition, in data set [1], the “Ratio IC50 (CHO-MG/CHO)” value is reported as 1. The “influence of exogenous iron on the cytostatic (anti-proliferative) effect” value in data set [2] (setting [8]) is “inhibition”. Moreover, the pIC50 in data set [2] (setting [9]) was 5.04. Moreover, in the data set on Caco-2 cells [3], the “intra-cell iron and L-ferritin concentrations” value is “intra-cell iron depletion”; the transferrin-soluble receptor result was “no significant effect”. For the same molecule, in the data set on HepG2 cells [4] (HepG2, absence of exogenous iron), the “concentration of the cytotoxic constituent associated with release of LDH” value was “over 10 micromoles per liter”. Moreover, the “influence of exogenous iron on the cytotoxic effect” value in the data set on HepG2 cells [4] is reported as “inhibition”. Moreover, in the data set on Caco-2 cells [5], the “influence of exogenous iron on the cytotoxic effect” value is listed as “inhibition”, the “% LDH/control 10 μM” value turned out to be 117% and the “% LDH/control 100 μM” value was determined as 130%. Moreover, in the data set with Caco-2 cells [6], the “change of intra-cell concentration of putrescine (Put)” value was −34% and the “change of intra-cell concentration of spermidine (Spd)” value was −15%. In addition, in the data set with HepG2 cells [7], the pIC50 is 5.41 and the “% of HepG2 cells concerned by the anti-proliferative effect” value came to 72.5%.
